# Assay results: US20120053119A1, “THERAPEUTIC METHOD FOR INCREASING PANCREATIC BETA CELL MASS” (priority 2009, published 2012)
# Tests used:
# Type in all cases: cell-based
# Wnt signaling = Wnt signaling reporter (beta-galactosidase) in isolated islets of TopGal mouse; settings: SDF-1 1 nM, isolated TopGal mouse islets
# Description: A. Isolated islets express reporter-driven beta-galactosidase. The dark regions mark the expression of beta-galactosidase, an indicator of the activation of the Wnt signaling reporter LacZ transgene. […] B. Polymerase chain reaction showing changes in beta-galactosidase mRNA levels in islets shown in panel A.
# Isolated mouse pancreatic islets Mouse islets were isolated (Lacy PE (1994) Pancreatic islet cell transplant. Mt Sinai J. Med. 61:23-31.) from the pancreata of TopGal reporter mice transgenic for the LEF-LacZ Wnt signaling reporter (DasGupta R, Fuchs E (1999) Development. 1999 126:4557-4568.). Freshly isolated islets were treated for 4 hrs with SDF-1 with and without the addition of the Galphai/o inhibitor pertussis toxin (PTX) or the CXCR4 antagonist AMD3100. Betagalactosidase activity was determined by incubation of the islets with X-gal for 6 hrs.
# Polymerase chain reaction analyses of betagalactosidase mRNA levels in isolated mouse islets Islets from TopGal mice were harvested after treatments with SDF-1, SDF-1+AMD3100, and SDF-1+pertussis toxin. RNA was extracted and beta galactosidase mRNA levels were measured by PCR using a SYBR Green QPCR kit (Stratagene) with the primers as described in Liu Z, Habener J F 2008 Glucagon-like Peptide-1 Activation of TCF7L2-dependent Wnt Signaling Enhances Pancreatic Beta Cell Proliferation. […]
# INS-1 cells [1] = assay: Thapsigargin-induced apoptosis, TUNEL staining; settings: co-incubation with SDF-1
# Experimental: (§1) FIG. 6. Inhibition of apoptosis by SDF-1 in INS-1 and MIN-6 cells is reversed by knock-down of betacatenin. A. Western blot analysis of extracts from MIN6 cells that were mock treated, thapsigargin-treated (1 μM) and/or siRNA transfected (0.25 mg/ml), by using anti-serum against cleaved caspase-3 (upper panel), anti-serum against cleaved PARP (middle panel) and actin antibody (lower panel) as a loading control. B. Caspase-3 activity (fluorescence/mg proteinx105) of INS-1 or MIN6 cells mock treated, thapsigargin-treated (1 μM) and/or siRNA transfected (0.25 mg/ml). Results are presented as mean±SD for n=3 independent experiments, All values are relative to the first (leftmost) bar. Statistical significance is depicted as * (p<0.05) when compared with control values (leftmost bar) and # (<0.05) when compared with […] thapsigargin treatment. C. Representative images are shown for TUNEL staining of INS-1 cells of n=3 independent experiments. Quantification of apoptotic cells is expressed as percent apoptotic cells relative to the total cells counted (lower left panel). […]
# DAPI (nuclei fluorescence) and TUNEL staining For the terminal deoxynucleotidyl transferase mediated dUTP nick end labeling (TUNEL) assay, cells seeded in 4-well chamber slides (Lab-Tak) were treated with thapsigargin and TUNEL assay performed (DeadEnd™ Fluorimetric TUNEL System kit, Promega). […]
# INS-1 cells [2] = assay: Cell proliferation assay, BrdU incorporation; settings: SDF-1 10 nM overnight
# Experimental: as §1
# Cell Proliferation Assay Proliferation of INS-1 cells was determined by incorporation of BrdU into newly synthesized DNA of proliferating cells. […] BrdU staining was measured by the DELFIA cell proliferation kit (Perkin Elmer).
# human islets = assay: SDF-1 mRNA by QRT-PCR in human islets ex vivo; settings: 4 hours; SDF-1 10 nM or 50 nM; two cytokine mixtures
# Experimental: FIG. 29. […] 50 human islets were treated with control, cytokine mixture or SDF-1 for 4 hr, mRNA was then extracted and QRT-PCR was performed. Cytokines 1: 2 ng/ml IL-1beta, 10 ng/ml TNF-alpha, 10 ng/ml IFN-gamma. Cytokines 2: 10 ng/ml IL-1beta, 50 ng/ml TNF-alpha, 50 ng/ml IFN-gamma.
# Groups of 50 human islet cells were treated with one of vehicle control, two different cytokine mixtures (Cytokines 1: 2 ng/ml IL-1beta, 10 ng/ml TNF-alpha, 10 ng/ml IFN-gamma; Cytokines 2: 10 ng/ml IL-1beta, 50 ng/ml TNF-alpha, 50 ng/ml IFN-gamma), or SDF-1 at one of two different concentrations (10 nM or 50 nM) for 4 hours. SDF-1 mRNA was then extracted and QRT-PCR was performed.
# INS-1 cells [3] = assay: ATP-lite cell viability assay, glucose toxicity; settings: 25 mM glucose, SDF-1 added day 0, 2, 4, read day 6
# Experimental: FIG. 34. […] For bars 3-8, SDF-1 was added at the indicated concentrations to high glucose concentration well plates at day 0, 2, 4. Cell viability was measured at day 6. N=4.
# SDF-1 was added at various concentrations (0.1 nM, 0.25 nM, […], 1 nM, 2.5 nM, and 5 nM) to high glucose concentration well plates at day 0, 2, 4. Cell viability was measured at day 6, using the ATP-lite cell viability assay (PerkinElmer, Boston, Mass.).
# mouse islets = assay: GLP-1 production in mouse islets ex vivo, radioimmunoassay; settings: batches of 50 islets, medium 1 and 4 hours, lysate 4 hr; SDF-1 10 nM
# Experimental: FIG. 37. Cytokines and SDF-1 stimulate GLP-1 production in mouse islets ex vivo. Batches of 50 islets were treated with control, cytokine mixture, or 10 nM SDF-1. Medium was collected in 1 hr and 4 hr. Islet lysate was collected in 4 hr. GLP-1. Immunoreactive protein was measured by radioimmunoassay.
# Batches of 50 islets were treated with a control vehicle, a cytokine mixture, or 10 nM SDF-1. Medium was collected from each batch at 1 hour and 4 hours, and islet lysate was collected in 4 hr. the concentration of GLP-1 contained in each sample collected was measured by radioimmunoassay of the immunoreactive protein.
substance,measurement,setting,value
"SDF-1: small, secreted 70 amino acid peptide chemokine, SEQ ID NO: 1, ligand of CXCR4",activation of Wnt signaling (beta-galactosidase) in TopGal islets,Wnt signaling,activates Wnt signaling
same,effect on thapsigargin-increased number of TUNEL positive cells,INS-1 cells [1],inhibited
same,"effect on proliferation of INS-1 cells, BrdU incorporation",INS-1 cells [2],no detectable effects
same,SDF-1 expression (mRNA) in human islets,human islets,induce SDF-1 expression
same,protection of cell viability against glucose toxicity,INS-1 cells [3],dose-dependently protects
same,production of GLP-1 by mouse islets,mouse islets,induces the production of GLP-1
